In test [1] the test system is inflammatory cells recruited to the inflamed synovial fluid of the knee joints. Kind of test: Rabbit model of destructive joint inflammation (rabbit LPS study). It counts as in vivo, New Zealand rabbits. The following applies: intra-articular LPS 10 ng, dosed orally 2 hours before and 4 hours after LPS, lavage at sixteen hours. The method, then:
A rabbit LPS study was conducted essentially as described in Podolin, et al. J. Immunol. 169(11):6435-6444 (2002). Female New Zealand rabbits (approximately 2 kilograms) were treated intra-articularly in both knees with LPS (10 ng). The compound of interest, for example 1.016, (formulated in 1% methocel) or vehicle (1% methocel) was dosed orally at a 5 ml/kg dose volume at two times (2 hours before the intra-articular LPS injection and 4 hours after the intra-articular LPS injection). Sixteen hours after the LPS injection, knees were lavaged and cells counts were performed. Beneficial effects of treatment were determined by reduction in the number of inflammatory cells recruited to the inflamed synovial fluid of the knee joints.

The target of test [2] is T1, CCR1 (Homo sapiens, UniProt P32246).
T1 construct: host or cells: THP-1 cells or isolated human CD14+ monocytes
T1 sequence (P32246 1-355): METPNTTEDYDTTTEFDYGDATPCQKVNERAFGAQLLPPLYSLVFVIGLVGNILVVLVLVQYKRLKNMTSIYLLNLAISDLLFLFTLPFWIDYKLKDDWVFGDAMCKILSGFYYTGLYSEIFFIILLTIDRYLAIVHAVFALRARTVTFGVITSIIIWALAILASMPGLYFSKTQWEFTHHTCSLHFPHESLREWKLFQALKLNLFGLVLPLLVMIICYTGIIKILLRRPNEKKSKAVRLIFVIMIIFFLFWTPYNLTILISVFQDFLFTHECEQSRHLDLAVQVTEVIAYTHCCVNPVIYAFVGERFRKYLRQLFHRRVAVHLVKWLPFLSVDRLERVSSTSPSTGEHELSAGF
Kind of test: Chemotaxis assay (CTX): inhibition of CCR1 mediated migration of THP-1 or monocyte cells. The test is classed as cell-based. The following applies: class symbols; activity for either the chemotaxis assay or binding assay. How it is done:
THP-1 cells were obtained from ATCC (TIB-202) and cultured as a suspension in RPMI-1640 medium supplemented with 2 mM L-glutamine, 1.5 g/L sodium bicarbonate, 4.5 g/L glucose, 10 mM HEPES, 1 mM sodium pyruvate, 0.05% 2-mercaptoethanol and 10% FBS. Cells were grown under 5% CO2/95% air, 100% humidity at 37° C. and subcultured twice weekly at 1:5 (cells were cultured at a density range of 2×10^5 to 2×10^6 cells/mL) and harvested at 1×10^6 cells/mL. THP-1 cells express CCR1 and can be used in CCR1 binding and functional assays.
Monocytes were isolated from human buffy coats using the Miltenyi bead isolation system (Miltenyi, Auburn, Calif.). Briefly, following a Ficoll gradient separation to isolate peripheral blood mononuclear cells, cells were washed with PBS and the red blood cells lysed using standard procedures. Remaining cells were labeled with anti-CD14 antibodies coupled to magnetic beads (Miltenyi Biotech, Auburn, Calif.). Labeled cells were passed through AutoMACS (Miltenyi, Auburn, Calif.) and positive fraction collected. Monocytes express CCR1 and can be used in CCR1 binding and functional assays.
Chemotaxis assays were performed using 5 μm pore polycarbonate, polyvinylpyrrolidone-coated filters in 96-well chemotaxis chambers (Neuroprobe; Gaithersburg, Md.) using chemotaxis buffer (Hank's balanced salt solution (HBSS) and 1% FBS). CCR1 chemokine ligands (i.e., MIP-1α, CCL15/Leukotactin; R&D Systems; Minneapolis, Minn.) are use to evaluate compound mediated inhibition of CCR1 mediated migration. Other chemokines (i.e., SDF-1α; R&D Systems; Minneapolis, Minn.) are used as specificity controls. The lower chamber was loaded with 29 μl of chemokine (i.e., 0.1 nM CCL15/Leukotactin) and varying amounts of compound; the top chamber contained 100,000 THP-1 or monocyte cells in 20 μl. The chambers were incubated 1-2 hours at 37° C., and the number of cells in the lower chamber quantified either by direct cell counts in five high powered fields per well or by the CyQuant assay (Molecular Probes), a fluorescent dye method that measures nucleic acid content, and by measuring with a Spectrafluor Plus (Tecan). The computer program Prism from GraphPad, Inc. (San Diego, Calif.) was used to calculate IC50 values. IC50 values are those compound concentrations required to inhibit the number of cells responding to a CCR1 agonist by 50%.

In general, IC50 refers to the concentration at which inhibition is half-maximal. Read a high IC50 as lower potency.

For the compound `Cc1c(Cl)c(C(F)(F)F)nn1C(CO)C(=O)N1CCCc2c1cnn2-c1ccc(F)cc1` (stereo not drawn) [Example 1.016], the “reduction in the number of inflammatory cells recruited to the inflamed synovial fluid of the knee joints” value in test [1] is “significant reduction in recruited inflammatory cells”.
With `O=C(Cn1cccn1)N1CCCc2c1cnn2-c1ccc(F)cc1`, in test [2], the IC50 was more than 12500 nM.
Take `O=C(Cn1nc(C(F)(F)F)c2c1OCCC2)N1CCCc2c1cnn2-c1ccc(F)cc1`: the IC50 in test [2] is less than 1000 nM.
In test [2], `Cc1c(Cl)c(C(F)(F)F)nn1CC(=O)N1CCCc2c1cnn2-c1ccc(F)cn1` came in with an IC50 of less than 1000 nM.
In test [2], `COc1cc(-n2ncc3c2CCCN3C(=O)Cn2nc(C(F)(F)F)c(Cl)c2C)ccc1Cl` showed an IC50 of less than 1000 nM.
In test [2], `O=C(C(O)c1cccc(C(F)(F)F)c1)N1CCCc2c1cnn2-c1ccc(F)cc1` (stereo not drawn) showed a half-inhibitory concentration (IC50) of 1000 to 2500 nM.
In test [2], `Cc1c(Cl)c(-c2ncccn2)nn1CC(=O)N1CCCc2c1cnn2-c1ccc(F)cc1` returned an IC50 of less than 1000 nM.
`CCC(C(=O)N1CCCc2c1cnn2-c1ccc(F)cc1)n1nc(-c2ncccn2)c(Cl)c1C` (stereo not drawn) showed a 50% inhibitory concentration (IC50) in test [2] of less than 1000 nM.
In turn, `Cc1cc(C(F)(F)F)nn1C(CC(=O)O)C(=O)N1CCCc2c1cnn2-c1ccc(F)cc1` (stereo not drawn) had an IC50 in test [2] of 2500 to 12500 nM.
In test [2], `O=C(Cc1ccc(Cl)c(OC(F)(F)F)c1)N1CCCc2c1cnn2-c1ccc(F)cc1` registered an IC50 of less than 1000 nM.
In test [2], `COCC(C(=O)N1CCCc2c1cnn2-c1ccc(F)cc1)n1nc(C(F)(F)F)c(Cl)c1C` (stereo not drawn) showed an IC50 of less than 1000 nM.
`Cc1ccnn1CC(=O)N1CCCc2c1cnn2-c1ccc(F)cc1` returned an IC50 in test [2] of less than 1000 nM.

The values are drawn from patent US9181241B2, “Antagonists of chemokine receptors” (ChemoCentryx, Inc., priority 2012, dated 2015).
